{
  "source": "patent US20220193047A1",
  "about": "“METHODS OF ENHANCING RADIOTHERAPY USING FERROPTOSIS INDUCERS AS RADIOSENSITIZERS” (THE TRUSTEES OF COLUMBIA UNIVERSITY IN THE CITY OF NEW YORK, priority 2019, published 2022)",
  "key": {"[1]": {"tested_on": "HT-1080 cells", "test": "Cell Titer Glo cell viability assay with radiation", "type": "cell-based", "settings": "HT-1080, 4 Gy radiation for 24 h", "method": "HT-1080 cells were plated at 1,000 cells per well in white 96-well plates (100 uL per well) in technical duplicates. The cells were then treated with vehicle (DMSO), Ferrostatin-1, DFO, Z-VAD-FMK or Necrostatin-1S and incubated overnight. […] After another 24 h, 100 uL of 50% Cell Titer Glo (Promega) 50% cell culture medium was added to each well and incubated at room temperature with shaking for 15 min. Luminescence was measured using a Victor X5 plate reader (PerkinElmer). Experiments were performed three independent times with different passages for each cell line."}, "[2]": {"tested_on": "HT-1080 xenograft tumors", "test": "HT-1080 tumor xenograft study in mice", "settings": "40 mg/kg IKE i.p. daily for 14 days", "experimental": "The injections were repeated daily for 14 days. […] For the sorafenib experiment, the formulation used was 40 mg/kg sorafenib in 5% DMSO, 20% ethanol in water containing 30% w/v cyclodextrin. […] Tumor size was measured daily using calipers and mouse weight was measured daily.\nThe efficacy of the combined treatment regimen of radiation and ferroptosis inducer was evaluated in an in vivo tumor model. […] Athymic nude mice were implanted with subcutaneous HT-1080 fibrosarcoma cells to form xenograft tumors."}, "[3]": {"tested_on": "TM00219 patient-derived xenograft tumors", "test": "Patient-derived xenograft study in mice (TM00219 lung adenocarcinoma)", "type": "in vivo", "settings": "40 mg/kg i.p. daily for 14 days, NSG mice", "method": "The experiment was conducted according to the same protocol as the HT-1080 tumor xenograft study, with the exception that a single dose of radiation (sham or 6 Gy) was delivered to the tumor on day 1 of the experiment.\nFinally, the effect of ferroptosis-inducing system xc^− inhibitors, in combination with radiation, was tested on a patient-derived xenograft (PDX) model of lung adenocarcinoma, which is another type of cancer commonly treated with radiation therapy. NSG mice engrafted with a human lung adenocarcinoma tumor (TM00219) were evaluated."}, "[4]": {"tested_on": "lipid species in HT-1080 cells", "test": "Mass spectrometry-based untargeted lipidomics", "type": "cell-based", "experimental": "Homogenized samples were transferred to fresh glass tubes containing 850 mL of cold methyl-tertbutyl ether (MTBE) and vortex-mixed for 30 sec. To enhance extraction efficiency of lipids, the samples were incubated for one hour at 4° C. on an orbital shaker. Afterwards, 200 mL of cold water was added to each sample, and incubated for 20 min on ice before centrifugation at 3,000 rpm for 20 min at 4° C. The organic layer was collected followed by drying under a gentle stream of nitrogen gas on ice and stored at −80° C. until UPLC-MS analysis. The protein pellet was used to measure protein concentration for normalization using Bio-Rad protein assay. The samples were re-constituted in a solution containing 2-propanol/acetonitrile/water (4:3:1, v/v/v) containing mixture of internal standard (PLASH® LIPIDOMIX® Mass Spec Standard, Avanti Polar Lipids, INC.) for further UPLC-MS analysis. A quality control (QC) sample was prepared by combining 40 mL of each sample to assess the reproducibility of the features through the runs.\nChromatographic separation of extracted lipids was carried out at 55° C. on ACQUITY UPLC CSH C18 Column, (130 Å, 1.7 μm, 2.1 mm×100 mm) over a 20-min gradient elution. Mobile phase A consisted of ACN/water (60:40, v/v) and mobile phase B was 2-propanol/ACN/water (85:10:5, v/v/v) both containing 10 mM ammonium acetate and 0.1% acetic acid. […]"}, "[5]": {"tested_on": "MDA in HT-1080 xenograft tumor tissue", "test": "MDA immunohistochemistry on paraffin-embedded tumor sections", "type": "in vivo, mice", "settings": "tumors resected at day 14", "method": "Tumor tissue was fixed in 4% paraformaldehyde (PFA) for 24 h at 4° C. followed by washing three times with PBS. The samples were fixed in paraffin. Six series of […] sections were obtained with a sliding microtome. The serial sections were then mounted on gelatin-coated slide. The paraffin-embedded tissue sections were deparaffinized with xylene three times, 5 min each, followed by rehydrating in 100%, 90%, 70%, and 50% ethanol, two washes 5 min each, then rinsed with distilled water. Antigen retrieval was performed in sodium citrate buffer, pH 6.0, 95-100° C. for 10 min. Sections were then rinsed in PBST, 2 min each. A hydrophobic barrier pen was used to draw a circle on each slide. The slides were permeabilized with PBS/0.4% Triton X-100 twice before non-specific-binding blocking by incubating the sections with 10% goat serum (ThermoFisher 50197Z) for 30 minutes at room temperature. […] All images were captured on a Zeiss LSM 700 confocal microscope with constant laser intensity for all analyzed samples. The intensity above threshold of the fluorescent signal of the bound antibodies was analyzed using NIH ImageJ software.\nNext, malondialdehyde (MDA) levels, as a biomarker for ferroptosis, were measured in tumor tissue using immunohistochemistry on fixed and paraffin-embedded tumor samples resected at day 14 post-treatment (FIG. 6B)."}, "[6]": {"tested_on": "reduced glutathione (GSH) in HT-1080 cells", "test": "Reduced glutathione measurement in cells", "type": "cell-based", "settings": "HT-1080, irradiated cells (2 or 6 Gy, 24 hours) co-treated with 2 μM IKE", "method": "Cystine taken up by system xc^− is reduced to cysteine, a building block in the biosynthesis of glutathione. […] Using a fluorometric GSH probe, we observed that treatment with 2 or 6 Gy radiation for 24 hours depleted GSH in a dose-dependent manner in HT-1080 cells (FIG. 2E). […] Indeed, the decrease in colony formation of HT-1080 cells following 2 or 4 Gy radiation was rescued by either glutathione methyl ester or N-acetylcysteine, which is a biological precursor to glutathione (FIG. 9)."}},
  "data": [
    {"smiles": "CCOC(=O)c1ccc(NC2CCCCC2)c(N)c1", "note": "[ferrostatin-1]", "values": [
      {"measurement": "Cell viability after radiation (ATP-based luciferase assay)", "setting": "[1]", "value": "rescued from death"}
    ]},
    {"smiles": "CC(C)Oc1ccc(C(=O)Cn2ccnc2)cc1-n1c(CN2CCN(C(=O)COc3ccc(Cl)cc3)CC2)nc2ccccc2c1=O", "note": "[IKE, imidazole ketone erastin]", "values": [
      {"measurement": "Tumor volume, IKE plus radiation", "setting": "[2]; 6 Gy on days 2 and 4", "value": "enhanced the effects of radiation in reducing tumor growth"},
      {"measurement": "Tumor volume, IKE alone", "setting": "[2]; athymic nude mice", "value": "not strongly effective"},
      {"measurement": "Tumor growth, combination with radiation vs all other groups", "setting": "[3]; 6 Gy on day one", "value": "significant tumor growth inhibition"},
      {"measurement": "Tumor growth, drug alone vs vehicle only", "setting": "[3]", "value": "significant tumor control"},
      {"measurement": "Abundance of 17 lipid species (FA 16:1, lysophospholipids, diacylglycerols)", "setting": "[4]; HT-1080, 5 μM IKE for 12 h", "value": "increased significantly"},
      {"measurement": "Abundance of 17 lipid species (FA 16:1, lysophospholipids, diacylglycerols)", "setting": "[4]; HT-1080, 5 μM IKE for 12 h plus 6 Gy radiation for 24 h", "value": "even larger increases"},
      {"measurement": "MDA signal in tumors, IKE and radiation vs vehicle", "setting": "[5]", "value": "Significantly elevated MDA signal"},
      {"measurement": "MDA signal in tumors, IKE only vs vehicle", "setting": "[5]", "value": "No significant differences"},
      {"measurement": "Levels of reduced glutathione", "setting": "[6]", "value": "further decreased"}
    ]}
  ]
}
